Reference: patent US20240301409A1, “Chemically Modified Small Activating RNA” (RACTIGEN THERAPEUTICS, priority 2021, published 2024)

Tested on: T24 cells
Test: Cellular proliferation assay (CCK8) in T24 cells, alone and combined with Mitomycin C or valrubicin
Assay type: cell-based, human
Procedure, shortened: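 Cells transfected with saRNA RAG1-40-31 (0.1–50 nM) for 24 h, then Mitomycin C or valrubicin (1–10000 nM) added in paired concentrations; single-agent saRNA at 10 nM for 72 h. Viability by CCK8 absorbance at 450 nm after 1 h at 37 °C, as % of blank transfection control.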

## RAG1-40-31: saRNA duplex: sense fCfCAACUCAUUCUCCAAG*U*C (SEQ ID NO 16); antisense U*A*fCfUfUGGAGAAfUGAGfUfUGG*fC*A (SEQ ID NO 12) (sense CCAACUCAUUCUCCAAGUC; antisense UACUUGGAGAAUGAGUUGGCA; 2'-F and phosphorothioate modifications; modified_base (1)..(2) (1,2)=2′-fluoro; modified_base (17)..(19) (17,18,19)=phosphorothioate (PS) backbone modification; modified_base (2)..(21) (2,3,19,20,21)=phosphorothioate (PS) backbone modification; modified_base (3)..(20) (3,4,5,12,16,17,20)=2′-fluoro)
RAG1-40-31 50 nM + valrubicin 1000 nm
  Relative proliferation proportion of T24 cells: 10.9%
RAG1-40-31 50 nM + valrubicin 10000 nm
  Relative proliferation proportion of T24 cells: 3.1%
RAG1-40-31 50 nM, Control (no MMC)
  Relative proliferation proportion of T24 cells: 14.7%
RAG1-40-31 50 nM, Control (no valrubicin)
  Relative proliferation proportion of T24 cells: 13.8%
T24 cells, RAG1-40-31 0.1 nM + MMC 1 nM
  Combination Index (CI): 0.42
T24 cells, RAG1-40-31 0.1 nM + MMC 10 nM
  Combination Index (CI): 1.59
T24 cells, RAG1-40-31 0.1 nM + MMC 100 nM
  Combination Index (CI): 0.64
T24 cells, RAG1-40-31 0.1 nM + MMC 1000 nM
  Combination Index (CI): 0.49
T24 cells, RAG1-40-31 0.1 nM + MMC 10000 nM
  Combination Index (CI): 1.05
T24 cells, RAG1-40-31 0.1 nM + Valrubicin 10000 nM
  Combination Index (CI): 0.38
T24 cells, RAG1-40-31 0.1 nM + valrubicin 1 nM
  Combination Index (CI): 1.9
T24 cells, RAG1-40-31 0.1 nM + valrubicin 10 nM
  Combination Index (CI): 17.16
T24 cells, RAG1-40-31 0.1 nM + valrubicin 100 nM
  Combination Index (CI): 11.04
T24 cells, RAG1-40-31 0.1 nM + valrubicin 1000 nM
  Combination Index (CI): 1.48
T24 cells, RAG1-40-31 0.5 nM + MMC 1 nM
  Combination Index (CI): 0.97
T24 cells, RAG1-40-31 0.5 nM + MMC 10 nM
  Combination Index (CI): 1.40
T24 cells, RAG1-40-31 0.5 nM + MMC 100 nM
  Combination Index (CI): 0.67
T24 cells, RAG1-40-31 0.5 nM + MMC 1000 nM
  Combination Index (CI): 0.46
T24 cells, RAG1-40-31 0.5 nM + MMC 10000 nM
  Combination Index (CI): 1.06
T24 cells, RAG1-40-31 0.5 nM + Valrubicin 10000 nM
  Combination Index (CI): 0.4
T24 cells, RAG1-40-31 0.5 nM + valrubicin 1 nM
  Combination Index (CI): 2.71
T24 cells, RAG1-40-31 0.5 nM + valrubicin 10 nM
  Combination Index (CI): 6.02
T24 cells, RAG1-40-31 0.5 nM + valrubicin 100 nM
  Combination Index (CI): 8.68
T24 cells, RAG1-40-31 0.5 nM + valrubicin 1000 nM
  Combination Index (CI): 0.92
T24 cells, RAG1-40-31 1 nM + MMC 1 nM
  Combination Index (CI): 0.96
T24 cells, RAG1-40-31 1 nM + MMC 10 nM
  Combination Index (CI): 0.88
T24 cells, RAG1-40-31 1 nM + MMC 100 nM
  Combination Index (CI): 0.69
T24 cells, RAG1-40-31 1 nM + MMC 1000 nM
  Combination Index (CI): 0.41
T24 cells, RAG1-40-31 1 nM + MMC 10000 nM
  Combination Index (CI): 0.84
T24 cells, RAG1-40-31 1 nM + Valrubicin 10000 nM
  Combination Index (CI): 0.33
T24 cells, RAG1-40-31 1 nM + valrubicin 1 nM
  Combination Index (CI): 1.23
T24 cells, RAG1-40-31 1 nM + valrubicin 10 nM
  Combination Index (CI): 0.92
T24 cells, RAG1-40-31 1 nM + valrubicin 100 nM
  Combination Index (CI): 1.02
T24 cells, RAG1-40-31 1 nM + valrubicin 1000 nM
  Combination Index (CI): 0.93
T24 cells, RAG1-40-31 5 nM + MMC 1 nM
  Combination Index (CI): 0.61
T24 cells, RAG1-40-31 5 nM + MMC 10 nM
  Combination Index (CI): 0.60
T24 cells, RAG1-40-31 5 nM + MMC 100 nM
  Combination Index (CI): 0.45
T24 cells, RAG1-40-31 5 nM + MMC 1000 nM
  Combination Index (CI): 0.24
T24 cells, RAG1-40-31 5 nM + MMC 10000 nM
  Combination Index (CI): 0.46
T24 cells, RAG1-40-31 5 nM + Valrubicin 10000 nM
  Combination Index (CI): 0.12
T24 cells, RAG1-40-31 5 nM + valrubicin 1 nM
  Combination Index (CI): 0.73
T24 cells, RAG1-40-31 5 nM + valrubicin 10 nM
  Combination Index (CI): 0.59
T24 cells, RAG1-40-31 5 nM + valrubicin 100 nM
  Combination Index (CI): 0.99
T24 cells, RAG1-40-31 5 nM + valrubicin 1000 nM
  Combination Index (CI): 0.47
T24 cells, RAG1-40-31 10 nM + MMC 1 nM
  Combination Index (CI): 0.52
T24 cells, RAG1-40-31 10 nM + MMC 10 nM
  Combination Index (CI): 0.77
T24 cells, RAG1-40-31 10 nM + MMC 100 nM
  Combination Index (CI): 0.47
T24 cells, RAG1-40-31 10 nM + MMC 1000 nM
  Combination Index (CI): 0.19
T24 cells, RAG1-40-31 10 nM + MMC 10000 nM
  Combination Index (CI): 0.30
T24 cells, RAG1-40-31 10 nM + Valrubicin 10000 nM
  Combination Index (CI): 0.09
T24 cells, RAG1-40-31 10 nM + valrubicin 1 nM
  Combination Index (CI): 0.82
T24 cells, RAG1-40-31 10 nM + valrubicin 10 nM
  Combination Index (CI): 0.62
T24 cells, RAG1-40-31 10 nM + valrubicin 100 nM
  Combination Index (CI): 0.83
T24 cells, RAG1-40-31 10 nM + valrubicin 1000 nM
  Combination Index (CI): 0.63
T24 cells, RAG1-40-31 25 nM + MMC 1 nM
  Combination Index (CI): 0.92
T24 cells, RAG1-40-31 25 nM + MMC 10 nM
  Combination Index (CI): 1.38
T24 cells, RAG1-40-31 25 nM + MMC 100 nM
  Combination Index (CI): 0.73
T24 cells, RAG1-40-31 25 nM + MMC 1000 nM
  Combination Index (CI): 0.28
T24 cells, RAG1-40-31 25 nM + MMC 10000 nM
  Combination Index (CI): 0.36
T24 cells, RAG1-40-31 25 nM + Valrubicin 10000 nM
  Combination Index (CI): 0.1
T24 cells, RAG1-40-31 25 nM + valrubicin 1 nM
  Combination Index (CI): 0.97
T24 cells, RAG1-40-31 25 nM + valrubicin 10 nM
  Combination Index (CI): 1.25
T24 cells, RAG1-40-31 25 nM + valrubicin 100 nM
  Combination Index (CI): 1.25
T24 cells, RAG1-40-31 25 nM + valrubicin 1000 nM
  Combination Index (CI): 0.67
T24 cells, RAG1-40-31 25 nM and 50 nM + Mitomycin C 1, 10, 100, 1000 and 10000 nM
  relative proliferation proportions of cells: lower than 21%
T24 cells, RAG1-40-31 25 nM and 50 nM + valrubicin 1, 10, 100, 1000 and 10000 nM
  relative proliferation proportion of cells: lower than 21%
T24 cells, RAG1-40-31 50 nM + MMC 1 nM
  Combination Index (CI): 2.59
T24 cells, RAG1-40-31 50 nM + MMC 10 nM
  Combination Index (CI): 2.60
T24 cells, RAG1-40-31 50 nM + MMC 100 nM
  Combination Index (CI): 1.31
T24 cells, RAG1-40-31 50 nM + MMC 1000 nM
  Combination Index (CI): 0.50
T24 cells, RAG1-40-31 50 nM + MMC 10000 nM
  Combination Index (CI): 0.47
T24 cells, RAG1-40-31 50 nM + Valrubicin 10000 nM
  Combination Index (CI): 0.19
T24 cells, RAG1-40-31 50 nM + valrubicin 1 nM
  Combination Index (CI): 2.12
T24 cells, RAG1-40-31 50 nM + valrubicin 10 nM
  Combination Index (CI): 2.3
T24 cells, RAG1-40-31 50 nM + valrubicin 100 nM
  Combination Index (CI): 2.3
T24 cells, RAG1-40-31 50 nM + valrubicin 1000 nM
  Combination Index (CI): 1.04
T24 cells, RAG1-40-31 0.1-50 nM + Mitomycin C 1000 and 10000 nM
  relative proliferation proportions of cells: lower than 18%
T24 cells, RAG1-40-31 0.1-50 nM + valrubicin 1000 nM and 10000 nM
  relative proliferation proportions of cells: lower than 60%
T24 cells, RAG1-40-31 5-50 nM + Mitomycin C 1, 10, 100, 1000 and 10000 nM
  relative proliferation proportions of cells: lower than 40%
T24 cells, RAG1-40-31 5-50 nM + valrubicin 1, 10, 100, 1000 and 10000 nM
  relative proliferation proportions of cells: lower than 40%
T24 tumor cells
  effect of combined use with Mitomycin C or valrubicin, in words: synergistic effect
